Test results as given in patent US20240075005A1 (LIGALLI BV, priority 2021, published 2024).
Where “and” joins values, the source holds several entries; their conditions need not be identical. Equal entries are not always repeated.

Experiment: Pharmacokinetic trial: single 3 mg intravaginal dose of oxybutynin HCl delivered by the MedRing vaginal ring, plasma LC/MS/MS
Assay type: in vivo, human (female subjects)
Text: This trial investigated the feasibility of pulsed intra-vaginal delivery of oxybutynin and explored systemic exposure after application via the MedRing device.
The trial included female subjects of childbearing potential (women of childbearing potential, WOCBP) aged between 18 and 45 years (inclusive) and female postmenopausal subjects aged between 50 and 69 years (inclusive); Postmenopausal status is defined as age≥50 years and having >12 months amenorrhoea in the absence of hormonal therapy that may cause amenorrhoea.
Subjects began a 4-hour pre-dose fasting period before arriving to the clinic until 2 hours post-dose. Upon arrival, the subjects underwent pre-dose measurements to re-confirm eligibility for the study and to perform baseline measurements. The MedRing was inserted intra-vaginally by medically trained personnel. Water was allowed ad libitum. Subjects underwent blood sampling throughout the day. The MedRing was removed by medical study personnel 2 hours post dose in the first cohort. The MedRing was removed by medical personnel 6 hours post dose in the second cohort. The subjects went home approximately 8 hours post dose. The following day, the subjects of the second cohort returned to the clinic for an ambulant blood sample.
Plasma samples were also used for assessment of the concentrations of the metabolite, N-desethyloxybutynin.

For `CCNCC#CCOC(=O)C(O)(c1ccccc1)C1CCCCC1` (stereo not shown) [N-desethyloxybutynin], the “Area under the concentration-time curve to infinity (AUCinf) in plasma, mean (±SD)” value (3 mg oxybutynin HCl intravaginal via MedRing) was 51.1 (±43.1), the “t1/2, mean (±SD)” value (3 mg oxybutynin HCl intravaginal via MedRing, plasma) was 7.7 h and the “tmax, median (min-max)” value (3 mg oxybutynin HCl intravaginal via MedRing, post dose, plasma) was 4 hours and 4 (3-5) hours. For the same compound, the “Cmax in plasma, mean (±standard deviation)” value (3 mg oxybutynin HCl intravaginal via MedRing, single dose, 8 female subjects) was 3.9 ng/mL, the “plasma concentrations relative to known safety window” value (intravaginal via MedRing) was “well within the known safety window” and the “plasma levels after 22 hours” value (second cohort (MedRing in situ 6 hours), 22-hour sample) was “found in all 4 subjects”.

`CCN(CC)CC#CCOC(=O)C(O)(c1ccccc1)C1CCCCC1` (stereo not shown) [oxybutynin] gave an AUC(0-inf) (female, human, in vivo, 3 mg) of 34.9 ng·h/mL, a Cmax (female, human, in vivo, 3 mg) of 5.4 ng/mL and a Tmax (female, human, in vivo, 3 mg) of 2 h. For the same compound, the half-life (female, human, in vivo, 3 mg) was 8.5 h, the “t1/2, mean (±SD)” value (female, human, in vivo, 3 mg) was 8.5 (±3.5) hours and the “tmax, median (min-max)” value (female, human, in vivo, 3 mg) was 2 (1-5) hours. The “plasma levels after 22 hours” value (female, human, in vivo, 22 h) was “found in all 4 subjects”.
